Data reported in patent publication US12427212B2, “Nectin-4 binding miniproteins, conjugates and uses thereof” (Aktis Oncology, Inc., priority 2023, dated 2025).
Bridges are numbered along the chain shown (N, C = ends). Primed or numbered codes have the meaning given here. [ ]: non-standard residue; d: D form. The star is where a group is joined. DOTA = O=C(O)CN1CCN(CC(=O)O)CCN(CC(=O)*)CCN(CC(=O)O)CC1; Biotin = O=C1N[C@H]2[C@H](CS[C@H]2CCCCC(=O)*)N1; Lys(Me3) = C[N+](C)(C)CCCC[C@H](N)C(=O)O; Arg(Me2s) = CN=C(NC)NCCC[C@H](N)C(=O)O; PEG4 = NCCOCCOCCOCCOCCC(=O)O; PEG4′ = not defined here

Experiments:
[1] = system: HT-1376 urothelial cancer cells; experiment: In vitro cell cytotoxicity assay of 225Ac-radioconjugates (CellTiter-Glo); format: cell-based, human; conditions: compound radiolabeled with 225Ac, 24 h treatment, 4-5 day regrowth, HT-1376 cells
Protocol: Cytotoxicity to ^225Ac-radioconjugates was assessed in HT-1376 urothelial cancer cells. Cells were seeded in 96-well plates at densities of 250 to 1000 cells per well two days prior to treatment. On the day of treatment ^225Ac-radioconjugates were diluted in culture medium to concentrations ranging from 0,0001 to 100 μCi/mL and treatment solutions were incubated with cells for 24 h. At the end of the treatment period, the treatment solution was removed, and fresh culture medium was replenished for the regrowth period of the assay that lasted 4-5 day's. At the end of the regrowth period the culture medium was removed and viability was assessed by CellTiter-Glo (Promega, Waltham MA) luminescent assay and the plates were read on a Perkin Elmer Enspire multimode plate reader. Data were normalized to treatment controls and plotted as non-linear sigmoidal dose response curves to determine the effective concentration for 50% reduction in cell viability.

[2] = molecular target: T1, mouse Nectin-4 (Mus musculus, UniProt Q8R007); experiment: Surface plasmon resonance (Biacore), 1:1 binding model, mouse Nectin-4; conditions: SPR, 25° C.
T1 sequence (Q8R007 31-508): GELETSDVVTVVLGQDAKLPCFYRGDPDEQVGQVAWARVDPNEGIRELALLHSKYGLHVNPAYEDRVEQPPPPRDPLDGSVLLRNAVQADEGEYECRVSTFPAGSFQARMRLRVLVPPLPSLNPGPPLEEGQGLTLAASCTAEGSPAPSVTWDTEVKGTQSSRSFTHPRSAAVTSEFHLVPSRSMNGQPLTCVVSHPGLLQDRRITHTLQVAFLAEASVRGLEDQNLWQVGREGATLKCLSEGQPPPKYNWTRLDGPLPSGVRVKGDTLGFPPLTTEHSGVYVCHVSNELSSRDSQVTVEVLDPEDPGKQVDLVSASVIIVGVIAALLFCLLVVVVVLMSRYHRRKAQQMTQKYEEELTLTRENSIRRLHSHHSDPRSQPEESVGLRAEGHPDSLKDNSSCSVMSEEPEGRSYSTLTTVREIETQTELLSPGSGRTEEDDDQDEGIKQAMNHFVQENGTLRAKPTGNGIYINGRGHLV
Protocol: (§1) Peptide binding affinity to the target protein was measured by SPR using an SPR machine, such as a Biacore T200 instrument. The target protein was covalently coupled to a Biacore chip surface using free amine-coupling chemistry (NHS/EDC) and all uncoupled sites were blocked with ethanolamine. Free peptides were flowed over the target protein surface in increasing concentrations to measure association (Ka, 1/Ms^−1)) and dissociation (Kd, s^−1) to calculate the dissociation equilibrium constant (KD) using an appropriate binding model (see, e.g., Nikolas Stroth, J Biol Methods. 2016; 3 (1)).
(§2) In FIGS. 1A, 1B, 2A, and 2B, lines on graphs are labeled from top to bottom, beginning with letter “a.” and the corresponding concentration is noted to the right of the figure.
(§3) (i.e., a conjugate comprising a Nectin-4 peptide of SEQ ID NO: 5 and arranged having an N-terminus comprising ^138La-DOTA-PEG4 and a C-terminus comprising OH). […] In both FIGS. 3A and 3B, lines on graphs were labeled from top to bottom, beginning with letter a, and the corresponding concentration was noted to the right of the figure.

[3] = molecular target: T2, Nectin-4 (Homo sapiens, UniProt Q96NY8); experiment: Surface plasmon resonance (Biacore), 1:1 binding model, human Nectin-4; conditions: SPR, 25° C.
T2 sequence (Q96NY8 32-510): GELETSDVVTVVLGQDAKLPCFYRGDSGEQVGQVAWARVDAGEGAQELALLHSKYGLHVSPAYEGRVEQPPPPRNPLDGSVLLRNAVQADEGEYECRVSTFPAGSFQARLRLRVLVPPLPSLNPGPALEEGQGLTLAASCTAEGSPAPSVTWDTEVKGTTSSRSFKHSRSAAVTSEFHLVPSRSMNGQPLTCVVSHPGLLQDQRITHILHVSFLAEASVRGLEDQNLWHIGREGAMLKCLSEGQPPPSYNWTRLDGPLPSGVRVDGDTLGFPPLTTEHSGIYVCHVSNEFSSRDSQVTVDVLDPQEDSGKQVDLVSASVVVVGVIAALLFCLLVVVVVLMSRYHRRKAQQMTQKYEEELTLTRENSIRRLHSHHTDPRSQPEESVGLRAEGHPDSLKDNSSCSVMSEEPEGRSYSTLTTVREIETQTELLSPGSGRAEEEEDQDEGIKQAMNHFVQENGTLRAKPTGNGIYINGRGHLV
Protocol: as §1, §2, §3

[4] = molecular target: T2, Nectin-4; experiment: DELFIA competitive binding assay (Ki) against Eu-labeled C307 on HT-1376 cells
Protocol: A competition binding assay was utilized to determine the Ki for miniproteins bound to Nectin-4 expressed on the surface of cancer cells. […] Miniprotein incubations occurred for 90 min to reach binding equilibrium. […] After miniprotein incubations, the wells were washed to remove unbound ligand and treated according to manufacturer instructions for a DELFIA® (dissociation-enhanced lanthanide fluorescent immunoassay, Revvity Health Sciences). In brief, washed wells were incubated with 15 μL of 2 M HCl for 2 h at 37° C., after which 17 μL of 2 M NaOH and 30 μL of DELFIA® enhancement solution were added to each well and incubated for an additional 30 min. The remaining Eu reacted with the DELFIA® enhancer solution to generate fluorescence measured on the Envision instrument. Relative fluorescence units (RFUs) were measured as a function of test article concentration in order to calculate an IC50.
A whole cell binding assay was used to estimate the equilibrium binding affinity (KD) or binding inhibition constant (Ki) of miniprotein ligands to cells expressing a target of interest. Cells were dispensed into a 384-well plate and incubated at 37° C., in 5% CO2 overnight. The next day cells were gently washed once in assay buffer prior to addition of europium chelated ligand. […] For Ki determination, a single concentration (KD equivalent concentration) of europium-chelate miniprotein was added to each well followed immediately by the addition of unconjugated competing ligand over 12 different concentrations ranging from 100 times below and above expected Ki values as before. The plate was incubated for 1.5 h at room temperature to reach binding equilibrium. Cells were then washed three times at room temperature with 1×PBS followed by the addition of 2 M HCl and incubated for two h at 37° C. Following this step, 2 M NaOH and fluorescent inducer solution were added to each well and incubated for 30 minutes at room temperature according to the manufacturer's protocol (Perkin-ELMER DELFIA assay). Plates were read on an Envision plate reader and a curve-fitting model was applied to estimate KD and Ki values using GraphPad Prism software.
Engineered Nectin-4 miniproteins with further modified lysine residues (C298-C304; as described in Example 4B) were evaluated for their ability to bind to Nectin-4.

[5] = system: Opossum kidney proximal tubule cells; experiment: Proximal tubule epithelial cell uptake assay; format: cell-based; conditions: Table 10A; mean percent uptake in opossum kidney cells, 1 h at 37° C., relative to control miniprotein C306
Protocol: FIG. 8 is a bar graph of the percent uptake of exemplary miniproteins tested at 20 µM in a proximal tubule epithelial cell assay vs 20 μM control peptide set at 100%. […]
Opossum kidney proximal tubule cells were plated in the upper chamber of 24-well transwell plates containing 600 μL of growth media in the lower chamber and were incubated overnight at 37° C., in 5% CO2. The following day, the media was changed, and cells were incubated an additional 24 h with orbital shaking at 146 RPM. Next, cells were washed and treated in duplicates with biotinylated exemplary miniproteins pre-complexed with streptavidin-AF647 for 1 h at 37° C., and 5% C02 with continuous orbital shaking. Following incubation, cells were washed three times with 1×PBS and lysed with RIPA buffer containing protease and phosphatase inhibitor cocktail and a universal nuclease for 30 minutes. Uptake was measured on 100 μL of lysates using a fluorimeter. Mean % uptake values of control miniprotein C306 in the presence of exemplary miniproteins are provided in TABLE 10A and summarized in FIG. 8.
Uptake of engineered Nectin-4 miniproteins with further modified lysine residues (C298-C304, as described in Example 4B) was evaluated. Percent uptake of these exemplary Nectin-4-targeting miniproteins and C251 were determined against a control miniprotein, C306, using opossum kidney proximal tubule cells as described in Example 18A. Percent uptake of C298, which has an unmodified lysine (K) at amino acid position 26 (along the length of the miniprotein sequence. SEQ ID NO: 162), was 37% in the presence of […]. All other miniproteins having a modified lysine (modified with one or more small alkyl groups of monomethyl, dimethyl, trimethyl, or isopropyl group) had (i) kidney uptake similar to that of C251 and (ii) reduced uptake as compared to C298, which has an unmodified lysine at position 26.

[6] = system: un-transfected HEK293 cells; experiment: Background binding to un-transfected HEK293 cells (cell microarray suitability); format: cell-based, human; conditions: biotin-labeled molecules
Protocol: To evaluate potential off-target binding, six biotin-labeled molecules were tested in a cell microarray platform having 6,416 different human proteins spanning diverse functions and subcellular locations.

| Molecule | kd for mouse Nectin-4 [2] [s⁻¹] | kd for human Nectin-4 [3] [s⁻¹] | Ki [4] [nM] | % Uptake of C306 (Control) [5] [%] | other results |
| --- | --- | --- | --- | --- | --- |
| C214 ({DOTA-PEG4′}-CEYDEEFFTALKRLRGGDICYYIKKKFDYLPKLCIEEILDNLGC-NH2; disulfide 1-34, 20-44) [Compound C214] | – | – | – | – | EC50 (microcurie/milliliter) for 225Ac radioconjugates [1]: 0.014 microcurie/milliliter |
| Ac-CEYDEEFFAGLKRLRGGDICYYIKKKFDKVPDLCIEEILDKLGC-OH (disulfide 1-34, 20-44) [Compound C9] | 0.02134 | 0.02271 | – | – | Kd [2]: 7.82 nM; Kd [3]: 7.5 nM |
| {Biotin-PEG4}-CEYDEQFFTALARLRGGDICEYIQA[Arg(Me2s)]FQYLPGLCIEEILDNLGCS-OH (disulfide 1-34, 20-44) [Compound C267] | – | – | 0.76 | 0.800 | – |
| {Biotin-PEG4}-CDYDEQFFTALKRLRGGDICEYIQA[Lys(Me3)]FQYLPGECIEEILDNLGCS-OH (disulfide 1-34, 20-44) [Compound C255] | – | – | 0.66 | 14.1 | – |
| {Biotin-PEG4}-CEYDEEFFTALARLRGADICQYIQA[Lys(Me3)]FQYLPALCIEEILDNLGCS-OH (disulfide 1-34, 20-44) [Compound C252] | – | – | 0.76 | 1.24 | – |
| CC[C@H](C)[C@@H]1NC(=O)[C@H](Cc2ccc(O)cc2)NC(=O)[C@H](CCC(=O)O)NC(=O)[C@@H]2CSSC[C@@H](C(=O)N[C@@H](CO)C(=O)O)NC(=O)CNC(=O)[C@H](CC(C)C)NC(=O)[C@H](CC(N)=O)NC(=O)[C@H](CC(=O)O)NC(=O)[C@H](CC(C)C)NC(=O)[C@H]([C@@H](C)CC)NC(=O)[C@H](CCC(=O)O)NC(=O)[C@H](CCC(=O)O)NC(=O)[C@H]([C@@H](C)CC)NC(=O)[C@H](CSSC[C@H](NC(=O)CCOCCOCCOCCOCCNC(=O)CCCC[C@@H]3SC[C@@H]4NC(=O)N[C@@H]43)C(=O)N[C@@H](CC(=O)O)C(=O)N[C@@H](Cc3ccc(O)cc3)C(=O)N[C@@H](CC(=O)O)C(=O)N[C@@H](CCC(=O)O)C(=O)N[C@@H](CCC(N)=O)C(=O)N[C@@H](Cc3ccccc3)C(=O)N[C@@H](Cc3ccccc3)C(=O)N[C@@H]([C@@H](C)O)C(=O)N[C@@H](C)C(=O)N[C@@H](CC(C)C)C(=O)N[C@@H](CCCCN)C(=O)N[C@@H](CCCNC(=N)N)C(=O)N[C@@H](CC(C)C)C(=O)N[C@@H](CCCNC(=N)N)C(=O)NCC(=O)NCC(=O)N[C@@H](CC(=O)O)C(=O)N[C@@H]([C@@H](C)CC)C(=O)N2)NC(=O)[C@H](CC(C)C)NC(=O)CNC(=O)[C@@H]2CCCN2C(=O)[C@H](CC(C)C)NC(=O)[C@H](Cc2ccc(O)cc2)NC(=O)[C@H](CCC(N)=O)NC(=O)[C@H](Cc2ccccc2)NC(=O)[C@H](CO)NC(=O)[C@H](C)NC(=O)[C@H](CCC(N)=O)NC1=O [Compound C190] | – | – | – | – | Background binding to un-transfected HEK293 cells [6]: low-background binding |
| {DOTA-PEG4}-CEYDEEFFAGLKRLRGGDICYYIKKKFDKVPDLCIEEILDKLGC-OH (disulfide 1-34, 20-44) [Compound C91] | 0.02817 | 0.02966 | – | – | – |
| {Biotin-PEG4}-CEYDEQFFTALARLRGADICEYIQARFQYLPGLCIEEILDNLGCS-OH (disulfide 1-34, 20-44) [Compound C280] | – | – | 0.54 | 1.56 | – |
| {DOTA-PEG4}-CEYDEEFFAGLKRLRGGDICYYIKKKFDKVPDLCIEEILDKLGC-OH (disulfide 1-34, 20-44) [Compound C12] | 0.02625 | 0.01697 | – | – | – |
